Test: xn = mol fraction of the nth substance listed
Details: Gas, Buoyancy - hydrostatic balance with magnetic suspension - one sinker

[HH] [hydrogen] + N#N
Details | mass density [kg/m3]
324.95 K, 4997 kPa, x2 = 0.95 | 49.08
324.95 K, 4998 kPa, x2 = 0.9 | 46.597
324.95 K, 5000 kPa, x2 = 0.5001 | 27.194
324.95 K, 5997 kPa, x2 = 0.9 | 55.762
324.95 K, 5997 kPa, x2 = 0.95 | 58.767
324.95 K, 6001 kPa, x2 = 0.5001 | 32.482
324.95 K, 6997 kPa, x2 = 0.9 | 64.863
324.95 K, 7000 kPa, x2 = 0.95 | 68.408
324.95 K, 7002 kPa, x2 = 0.5001 | 37.712
324.95 K, 7996 kPa, x2 = 0.5001 | 42.85
324.95 K, 7997 kPa, x2 = 0.95 | 77.913
324.95 K, 7998 kPa, x2 = 0.9 | 73.894
324.95 K, 8997 kPa, x2 = 0.5001 | 47.967
324.95 K, 8998 kPa, x2 = 0.9 | 82.834
324.95 K, 8999 kPa, x2 = 0.95 | 87.379
324.95 K, 9998 kPa, x2 = 0.5001 | 53.025
324.95 K, 9998 kPa, x2 = 0.9 | 91.672
324.95 K, 9999 kPa, x2 = 0.95 | 96.736
324.95 K, 10996 kPa, x2 = 0.5001 | 58.014
324.95 K, 10996 kPa, x2 = 0.95 | 105.963
324.95 K, 10997 kPa, x2 = 0.9 | 100.42
324.95 K, 11997 kPa, x2 = 0.5001 | 62.949
324.95 K, 11999 kPa, x2 = 0.9 | 109.068
324.95 K, 12979 kPa, x2 = 0.95 | 123.971
324.95 K, 12995 kPa, x2 = 0.5001 | 67.81
324.95 K, 13000 kPa, x2 = 0.9 | 117.611
324.95 K, 13992 kPa, x2 = 0.5001 | 72.609
324.95 K, 13997 kPa, x2 = 0.9 | 126.005
324.95 K, 13998 kPa, x2 = 0.95 | 133.041
324.95 K, 14993 kPa, x2 = 0.5001 | 77.366
324.95 K, 14996 kPa, x2 = 0.9 | 134.301
324.95 K, 15985 kPa, x2 = 0.5001 | 82.016
324.95 K, 15998 kPa, x2 = 0.9 | 142.496
324.95 K, 16998 kPa, x2 = 0.5001 | 86.706
324.95 K, 17000 kPa, x2 = 0.9 | 150.561
324.95 K, 17998 kPa, x2 = 0.5001 | 91.271
324.95 K, 18003 kPa, x2 = 0.9 | 158.509
324.95 K, 18996 kPa, x2 = 0.5001 | 95.768
324.95 K, 19001 kPa, x2 = 0.9 | 166.298
324.95 K, 19974 kPa, x2 = 0.5001 | 100.115
349.93 K, 2982 kPa, x2 = 0.95 | 27.214
349.93 K, 12999 kPa, x2 = 0.95 | 114.314
349.93 K, 13999 kPa, x2 = 0.95 | 122.495
349.93 K, 14993 kPa, x2 = 0.95 | 130.518
349.93 K, 15998 kPa, x2 = 0.95 | 138.524
349.94 K, 997 kPa, x2 = 0.95 | 9.137
349.94 K, 998 kPa, x2 = 0.9 | 8.697
349.94 K, 999 kPa, x2 = 0.5001 | 5.133
349.94 K, 1998 kPa, x2 = 0.5001 | 10.223
349.94 K, 1998 kPa, x2 = 0.95 | 18.271
349.94 K, 1999 kPa, x2 = 0.9 | 17.375
349.94 K, 2979 kPa, x2 = 0.9 | 25.835
349.94 K, 2984 kPa, x2 = 0.5001 | 15.198
349.94 K, 3995 kPa, x2 = 0.5001 | 20.259
349.94 K, 3997 kPa, x2 = 0.95 | 36.385
349.94 K, 3998 kPa, x2 = 0.9 | 34.568
349.94 K, 4998 kPa, x2 = 0.9 | 43.083
349.94 K, 4998 kPa, x2 = 0.95 | 45.368
349.94 K, 5000 kPa, x2 = 0.5001 | 25.225
349.94 K, 5998 kPa, x2 = 0.5001 | 30.119
349.94 K, 5998 kPa, x2 = 0.9 | 51.533
349.94 K, 5998 kPa, x2 = 0.95 | 54.273
349.94 K, 6996 kPa, x2 = 0.5001 | 34.959
349.94 K, 6996 kPa, x2 = 0.95 | 63.099
349.94 K, 6997 kPa, x2 = 0.9 | 59.903
349.94 K, 7995 kPa, x2 = 0.5001 | 39.749
349.94 K, 7998 kPa, x2 = 0.9 | 68.207
349.94 K, 7998 kPa, x2 = 0.95 | 71.871
349.94 K, 8997 kPa, x2 = 0.5001 | 44.504
349.94 K, 8998 kPa, x2 = 0.9 | 76.424
349.94 K, 8999 kPa, x2 = 0.95 | 80.553
349.94 K, 9995 kPa, x2 = 0.5001 | 49.185
349.94 K, 9996 kPa, x2 = 0.9 | 84.544
349.94 K, 9999 kPa, x2 = 0.95 | 89.144
349.94 K, 10995 kPa, x2 = 0.5001 | 53.825
349.94 K, 10996 kPa, x2 = 0.9 | 92.584
349.94 K, 10998 kPa, x2 = 0.95 | 97.623
349.94 K, 11994 kPa, x2 = 0.5001 | 58.4
349.94 K, 11995 kPa, x2 = 0.95 | 105.989
349.94 K, 11997 kPa, x2 = 0.9 | 100.534
349.94 K, 12994 kPa, x2 = 0.9 | 108.364
349.94 K, 12996 kPa, x2 = 0.5001 | 62.939
349.94 K, 13990 kPa, x2 = 0.5001 | 67.389
349.94 K, 14000 kPa, x2 = 0.9 | 116.157
349.94 K, 14992 kPa, x2 = 0.5001 | 71.82
349.94 K, 14999 kPa, x2 = 0.9 | 123.797
349.94 K, 15993 kPa, x2 = 0.9 | 131.294
349.94 K, 15994 kPa, x2 = 0.5001 | 76.196
349.94 K, 16996 kPa, x2 = 0.5001 | 80.519
349.94 K, 16996 kPa, x2 = 0.95 | 146.347
349.94 K, 17001 kPa, x2 = 0.9 | 138.788
349.94 K, 17991 kPa, x2 = 0.5001 | 84.762
349.94 K, 17997 kPa, x2 = 0.9 | 146.084
349.94 K, 18002 kPa, x2 = 0.95 | 154.124
349.94 K, 18991 kPa, x2 = 0.5001 | 88.967
349.94 K, 18992 kPa, x2 = 0.9 | 153.266
349.94 K, 18992 kPa, x2 = 0.95 | 161.661
349.94 K, 19744 kPa, x2 = 0.9 | 158.626
349.94 K, 19885 kPa, x2 = 0.5001 | 92.681
349.94 K, 19940 kPa, x2 = 0.95 | 168.761

Reference: the NIST ThermoML archive (doi:10.1021/acs.jced.7b00694)
